For one compound, remaining binding results are on record in publication PMC7486443, “Generation of Phenothiazine with Potent Anti-TLK1 Activity for Prostate Cancer Therapy” (iScience, 2020).

Holding throughout (experiment): biochemical
Common to all, as to set-up: DiscoverX KINOMEscan scanMAX competition binding panel, single concentration, percent of control; remaining binding: dose or concentration left out as unconfirmed
What all share (conditions): KINOMEscan binding, percent of control; read-out: Table S4_SCANMAX REPORT - related to Fig. 1 / Percent Control

One test concerns the target CDK4 (Homo sapiens, UniProt P11802). From the text: (§1) Certain PTH are potent inhibitors of TLK1 ([Ronald et al., 2013]), and by inference TLK2, as these proteins must homo- and hetero-dimerize for full activation ([Mortuza et al., 2018]), in addition to being highly similar in sequence and structure, and thus similarly targetable. […] Two noteworthy observations are that PTHs are structurally different from many known ATP competitive inhibitors, and that J54 was carefully designed based on considerations reported previously for the THD—the Kinomescan has confirmed that J54 is specific to TLKs. We should point out that although PTH were the first reported inhibitors of TLKs ([Ronald et al., 2013]), other inhibitors particularly of TLK2 have since been reported ([Kim et al., 2016]), some based on structure docking ([Mortuza et al., 2018]), although neither their potency and effects in vivo nor their potential off-target effects have not been reported as they were selected from libraries of kinase inhibitors. Supplementary file mmc2.xlsx: Table S4. SCANMAX Table, Related to Figure 1 Kinomescan of J54 inhibitory activity on human kinases.

The target of another test is FLT1 (Homo sapiens, UniProt P17948).
Description: as §1

For the next test, the target named is FGFR3(G697C) (Homo sapiens, UniProt P22607, G697C).
Description: as §1

Another test deals with MET(M1250T) (Homo sapiens, UniProt P08581, M1250T).
Chain of MET(M1250T) (P08581 whole entry M1250T): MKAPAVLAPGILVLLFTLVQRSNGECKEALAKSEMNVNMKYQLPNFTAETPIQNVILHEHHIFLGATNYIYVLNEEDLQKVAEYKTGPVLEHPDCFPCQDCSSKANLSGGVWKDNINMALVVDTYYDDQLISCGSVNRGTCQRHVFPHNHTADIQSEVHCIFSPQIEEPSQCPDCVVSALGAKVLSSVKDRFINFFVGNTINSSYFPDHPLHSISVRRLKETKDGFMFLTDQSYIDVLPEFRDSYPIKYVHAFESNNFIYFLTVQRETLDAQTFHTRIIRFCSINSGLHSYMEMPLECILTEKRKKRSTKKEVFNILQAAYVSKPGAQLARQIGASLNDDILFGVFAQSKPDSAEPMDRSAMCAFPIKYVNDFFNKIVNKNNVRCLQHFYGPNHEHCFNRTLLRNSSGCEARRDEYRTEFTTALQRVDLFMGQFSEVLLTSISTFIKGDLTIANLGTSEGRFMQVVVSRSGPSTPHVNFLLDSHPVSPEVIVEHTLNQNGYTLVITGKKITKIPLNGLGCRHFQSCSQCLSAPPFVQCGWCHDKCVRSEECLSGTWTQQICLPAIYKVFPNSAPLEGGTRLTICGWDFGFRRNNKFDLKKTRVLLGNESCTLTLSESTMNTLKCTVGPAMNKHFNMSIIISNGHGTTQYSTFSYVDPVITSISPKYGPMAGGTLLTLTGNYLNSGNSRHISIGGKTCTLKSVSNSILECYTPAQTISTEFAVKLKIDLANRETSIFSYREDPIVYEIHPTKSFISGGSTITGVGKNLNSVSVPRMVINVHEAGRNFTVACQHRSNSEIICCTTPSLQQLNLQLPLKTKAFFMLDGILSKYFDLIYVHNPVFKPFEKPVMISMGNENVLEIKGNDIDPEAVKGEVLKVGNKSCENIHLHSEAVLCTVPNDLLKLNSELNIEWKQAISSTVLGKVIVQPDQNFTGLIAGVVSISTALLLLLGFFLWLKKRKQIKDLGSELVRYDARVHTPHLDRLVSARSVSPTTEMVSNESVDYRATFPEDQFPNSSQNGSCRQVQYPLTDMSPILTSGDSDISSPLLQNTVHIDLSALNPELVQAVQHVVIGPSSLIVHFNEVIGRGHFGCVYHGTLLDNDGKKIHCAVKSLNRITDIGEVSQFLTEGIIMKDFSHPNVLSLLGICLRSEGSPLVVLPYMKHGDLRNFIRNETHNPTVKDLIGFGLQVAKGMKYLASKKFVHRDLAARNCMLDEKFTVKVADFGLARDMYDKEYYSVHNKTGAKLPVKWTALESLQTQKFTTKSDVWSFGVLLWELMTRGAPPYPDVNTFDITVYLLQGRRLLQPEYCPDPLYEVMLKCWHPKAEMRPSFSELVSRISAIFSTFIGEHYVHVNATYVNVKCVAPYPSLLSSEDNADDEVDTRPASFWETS
Description: as §1

For a further test, the target named is SIK2 (Homo sapiens, UniProt Q9H0K1).
Chain of SIK2 (Q9H0K1 whole entry): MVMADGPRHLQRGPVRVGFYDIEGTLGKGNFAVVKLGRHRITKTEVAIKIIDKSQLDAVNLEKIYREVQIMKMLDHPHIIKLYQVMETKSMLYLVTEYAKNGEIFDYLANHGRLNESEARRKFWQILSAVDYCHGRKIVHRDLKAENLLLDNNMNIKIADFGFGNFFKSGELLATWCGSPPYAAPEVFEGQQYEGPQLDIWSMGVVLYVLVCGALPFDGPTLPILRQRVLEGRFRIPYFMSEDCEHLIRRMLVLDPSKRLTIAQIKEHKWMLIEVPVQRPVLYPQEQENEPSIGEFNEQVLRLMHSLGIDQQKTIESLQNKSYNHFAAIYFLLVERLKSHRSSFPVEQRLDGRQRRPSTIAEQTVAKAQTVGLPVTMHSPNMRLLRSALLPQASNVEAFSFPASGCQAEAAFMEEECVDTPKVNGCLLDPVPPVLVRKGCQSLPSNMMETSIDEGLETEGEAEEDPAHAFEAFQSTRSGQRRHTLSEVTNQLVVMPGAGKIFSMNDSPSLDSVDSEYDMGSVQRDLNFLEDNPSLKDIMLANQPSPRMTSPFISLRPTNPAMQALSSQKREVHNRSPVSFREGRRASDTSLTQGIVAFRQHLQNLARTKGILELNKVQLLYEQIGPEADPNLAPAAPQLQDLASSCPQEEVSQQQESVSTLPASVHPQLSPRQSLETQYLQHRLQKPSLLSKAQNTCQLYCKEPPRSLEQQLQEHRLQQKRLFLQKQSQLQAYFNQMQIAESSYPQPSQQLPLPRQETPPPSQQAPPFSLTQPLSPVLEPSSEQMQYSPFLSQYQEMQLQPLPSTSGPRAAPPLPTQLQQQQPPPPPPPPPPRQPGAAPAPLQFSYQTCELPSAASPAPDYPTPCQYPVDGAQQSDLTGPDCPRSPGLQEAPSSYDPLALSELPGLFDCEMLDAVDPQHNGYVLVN
Description: as §1

A further test concerns the target PAK2 (Homo sapiens, UniProt Q13177).
Description: as §1

A further test deals with STK35 (Homo sapiens, UniProt Q8TDR2).
Description: as §1

The next test deals with T1, S6K1 (Homo sapiens, UniProt P23443).
T1 construct: gene RPS6KB1
Description: as §1

The target in a further test is PIK3CA(Q546K) (Homo sapiens, UniProt P42336, Q546K).
Chain of PIK3CA(Q546K) (P42336 whole entry Q546K): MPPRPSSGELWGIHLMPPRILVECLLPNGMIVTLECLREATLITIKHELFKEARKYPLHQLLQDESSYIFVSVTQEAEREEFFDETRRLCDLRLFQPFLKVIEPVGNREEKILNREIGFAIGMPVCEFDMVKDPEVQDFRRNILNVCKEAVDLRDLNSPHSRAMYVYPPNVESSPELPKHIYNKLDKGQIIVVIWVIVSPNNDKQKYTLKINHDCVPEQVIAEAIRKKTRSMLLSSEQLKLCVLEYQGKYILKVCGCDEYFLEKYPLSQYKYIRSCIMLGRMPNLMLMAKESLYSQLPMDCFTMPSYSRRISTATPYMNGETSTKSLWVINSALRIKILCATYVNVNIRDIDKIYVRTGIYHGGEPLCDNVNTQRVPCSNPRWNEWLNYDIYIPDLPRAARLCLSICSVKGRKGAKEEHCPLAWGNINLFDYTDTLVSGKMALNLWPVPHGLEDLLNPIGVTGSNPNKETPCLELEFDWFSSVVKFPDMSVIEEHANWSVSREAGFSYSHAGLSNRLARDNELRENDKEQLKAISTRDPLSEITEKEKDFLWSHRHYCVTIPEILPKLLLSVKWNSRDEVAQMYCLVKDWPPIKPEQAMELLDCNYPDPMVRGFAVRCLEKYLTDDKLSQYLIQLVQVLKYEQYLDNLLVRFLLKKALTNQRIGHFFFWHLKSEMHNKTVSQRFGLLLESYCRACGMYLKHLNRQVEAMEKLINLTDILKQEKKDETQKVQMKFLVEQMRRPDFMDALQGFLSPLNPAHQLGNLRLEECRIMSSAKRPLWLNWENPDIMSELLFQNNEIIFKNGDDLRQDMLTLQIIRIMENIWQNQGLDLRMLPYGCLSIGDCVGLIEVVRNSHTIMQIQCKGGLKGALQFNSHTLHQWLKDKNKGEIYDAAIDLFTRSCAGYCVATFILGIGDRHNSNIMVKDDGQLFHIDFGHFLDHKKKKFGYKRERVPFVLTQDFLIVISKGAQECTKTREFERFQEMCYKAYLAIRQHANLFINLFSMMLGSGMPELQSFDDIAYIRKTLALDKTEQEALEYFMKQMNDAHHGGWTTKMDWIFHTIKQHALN
Description: as §1

Another test addresses PIK3CA (Homo sapiens, UniProt P42336).
Description: as §1

The target of test [1] is T2, ABL1(H396P)-nonphosphorylated (Homo sapiens, UniProt P00519, H396P).
T2 construct: nonphosphorylated
Description: as §1

The next test deals with FER (Homo sapiens, UniProt P16591).
Chain of FER (P16591 whole entry): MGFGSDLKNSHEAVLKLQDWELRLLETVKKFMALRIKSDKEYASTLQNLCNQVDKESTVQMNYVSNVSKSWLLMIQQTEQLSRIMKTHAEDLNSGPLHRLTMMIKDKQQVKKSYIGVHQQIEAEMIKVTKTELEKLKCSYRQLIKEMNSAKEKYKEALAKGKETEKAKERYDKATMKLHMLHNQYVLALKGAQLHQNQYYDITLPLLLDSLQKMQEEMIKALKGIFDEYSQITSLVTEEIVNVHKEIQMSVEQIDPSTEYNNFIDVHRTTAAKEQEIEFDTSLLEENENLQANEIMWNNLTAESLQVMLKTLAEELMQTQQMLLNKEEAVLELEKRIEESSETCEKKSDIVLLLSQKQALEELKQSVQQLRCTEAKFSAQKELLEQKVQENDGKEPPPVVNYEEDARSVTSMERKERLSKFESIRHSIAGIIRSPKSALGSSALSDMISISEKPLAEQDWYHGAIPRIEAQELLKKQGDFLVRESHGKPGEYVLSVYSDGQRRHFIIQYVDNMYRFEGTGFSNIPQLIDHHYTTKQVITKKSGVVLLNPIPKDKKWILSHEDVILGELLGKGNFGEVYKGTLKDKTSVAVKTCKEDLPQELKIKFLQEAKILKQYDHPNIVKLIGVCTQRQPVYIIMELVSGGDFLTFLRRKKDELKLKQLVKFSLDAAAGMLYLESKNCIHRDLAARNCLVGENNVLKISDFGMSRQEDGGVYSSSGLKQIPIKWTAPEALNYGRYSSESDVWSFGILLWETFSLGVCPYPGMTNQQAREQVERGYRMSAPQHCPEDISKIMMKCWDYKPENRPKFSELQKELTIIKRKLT
Description: as §1

Another test concerns the target RET(V804L) (Homo sapiens, UniProt P07949, V804L).
Description: as §1

A further test deals with CSNK2A1 (Homo sapiens, UniProt P68400).
Description: as §1

A further test deals with T3, DCAMKL1 (Homo sapiens, UniProt O15075).
T3 construct: gene DCLK1
Description: as §1

The target in the next test is FYN (Homo sapiens, UniProt P06241).
Description: as §1

Another test deals with CAMK1D (Homo sapiens, UniProt Q8IU85).
Description: as §1

The target in another test is TGFBR2 (Homo sapiens, UniProt P37173).
Description: as §1

Chain of CDK4 (P11802 whole entry): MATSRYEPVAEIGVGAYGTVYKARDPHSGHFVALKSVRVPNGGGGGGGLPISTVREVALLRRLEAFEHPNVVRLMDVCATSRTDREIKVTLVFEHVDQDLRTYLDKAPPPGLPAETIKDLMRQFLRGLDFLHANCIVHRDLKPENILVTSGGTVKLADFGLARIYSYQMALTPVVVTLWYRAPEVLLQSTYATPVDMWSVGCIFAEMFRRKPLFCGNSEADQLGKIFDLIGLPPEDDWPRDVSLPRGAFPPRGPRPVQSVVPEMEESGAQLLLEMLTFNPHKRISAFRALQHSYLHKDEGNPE
Chain of PAK2 (Q13177 whole entry): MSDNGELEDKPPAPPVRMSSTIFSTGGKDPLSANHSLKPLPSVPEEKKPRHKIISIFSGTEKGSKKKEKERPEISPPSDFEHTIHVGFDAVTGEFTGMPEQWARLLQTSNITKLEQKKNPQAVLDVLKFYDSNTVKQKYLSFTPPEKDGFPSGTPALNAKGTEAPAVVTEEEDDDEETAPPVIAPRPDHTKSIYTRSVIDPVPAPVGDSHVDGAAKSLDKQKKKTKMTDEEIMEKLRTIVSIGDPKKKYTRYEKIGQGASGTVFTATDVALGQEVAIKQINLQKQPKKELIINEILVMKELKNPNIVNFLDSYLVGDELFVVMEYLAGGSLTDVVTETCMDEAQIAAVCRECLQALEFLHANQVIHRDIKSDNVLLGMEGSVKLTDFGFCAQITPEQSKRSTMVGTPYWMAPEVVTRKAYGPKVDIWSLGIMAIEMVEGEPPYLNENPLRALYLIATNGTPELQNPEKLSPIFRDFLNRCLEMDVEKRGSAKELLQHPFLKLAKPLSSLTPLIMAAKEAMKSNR
Chain of PIK3CA (P42336 whole entry): as the sequence (P42336 whole entry Q546K) above, with K546Q counted along it

With `c1ccc2c(c1)Sc1ccccc1N2CCN1CCOCC1` [J54], the remaining binding on CDK4 was 100%; on FLT1 it was 98%; on FGFR3(G697C) it was 100%; at MET(M1250T), 67%; at SIK2, 97%; at PAK2, 76%. The remaining binding turned out to be 82% at STK35; 100% on S6K1; 100% on PIK3CA(Q546K); 94% at PIK3CA; 86% in test [1]; 100% at FER. The remaining binding at RET(V804L) came to 88%; at CSNK2A1, 79%; on DCAMKL1, 100%; at FYN, 100%; on CAMK1D, 85%; at TGFBR2, 99%.
